Data reported in patent US6916849B2, “Compositions for improving lipid content in the blood” (priority 2000, dated 2005).

Experiments:
[1] = test system: total cholesterol in the serum; assay: Evaluation of serum lipid level: total cholesterol in serum of beagle dogs after oral administration for 11 days (CEH-COD-POD method); conditions: oral capsule once daily, pravastatin 2 mg/kg, mean of 5 dogs
Text: (§1) Pravastatin with a purity of 99.4%, manufactured at Sankyo Co. Ltd., was employed in the study.
(§2) Male beagle dogs were purchased at 5 months old from Covance Research Products Inc., as the test animals, and were used after quarantine and acclimatization periods of approximately 1 month.
(§3) The required amounts of pravastatin or each combination drug as calculated based on the body weight of each animal were placed in a gelatin capsule (½-ounce volume) purchased from TORPAC Co. Capsules filled with pravastatin were stored in a cold room and with combination drugs at room temperature until use.
(§4) Combination drugs were put in identical geltin capsules.
(§5) Capsules filled with pravastatin or combination drugs were orally administered once daily between 9:00 and 12:30 to the test animals. All test animals were fasted 2-3 hr prior to administration. The administration period was 11 successive days.
(§6) Approximately 10 ml of blood were collected from the cephalic vein on 14 and 7 days before administration (2 and one week before the drug administration) and 4, 8, and 12 days after administration of the capsules. The animals were fasted for approximate 18 hr prior to blood collection. Collected blood was placed into test tubes and left for 0.5-1 hr at room temperature. The test tubes were then centrifuged at 3,000 rpm for 10 min to isolate serum. Levels of total cholesterol and ALP in the serum were determined by the CEH-COD-POD and Bessey-Lowry methods, respectively.
(§7) For quantitative analyses, an automatic analyzer, Monarch (Instrumentation Laboratory), was used.
(§8) Each value represents the mean value calculated from 5 animals.

ALP in the serum = conditions: oral capsule once daily, pravastatin 2 mg/kg, riboflavin acetate 6 mg/kg, relative to pre-administration average (100), mean of 5 dogs
Text: as §1, §2, §3, §4, §5, §6, §7, §8

[2] = d-α-tocopherol acetate 10 mg/kg, ascorbic acid 50 mg/kg, relative to pre-administration average (100)
[3] = d-α-tocopherol acetate 10 mg/kg, relative to pre-administration average (100)
[4] = ascorbic acid 50 mg/kg, relative to pre-administration average (100)
[5] = riboflavin acetate 6 mg/kg, relative to pre-administration average (100)

CC(=O)Oc1c(C)c(C)c2c(c1C)CC[C@@](C)(CCC[C@H](C)CCC[C@H](C)CCCC(C)C)O2 [d-α-tocopherol acetate]
Total Cholesterol Level in Serum After Administration, 4 days [1, 2]: 97.8 | Total Cholesterol Level in Serum After Administration, 4 days [1, 3]: 96.3 | Total Cholesterol Level in Serum After Administration, 8 days [1, 2]: 96.4 | Total Cholesterol Level in Serum After Administration, 8 days [1, 3]: 92.8 | Total Cholesterol Level in Serum After Administration, 12 days [1, 2]: 96.1 | Total Cholesterol Level in Serum After Administration, 12 days [1, 3]: 95.9

O=C1O[C@H]([C@@H](O)CO)C(O)=C1O [Ascorbic acid, ascorbic acid]
Total Cholesterol Level in Serum After Administration, 4 days [1, 4]: 98.7 | Total Cholesterol Level in Serum After Administration, 8 days [1, 4]: 98.2 | Total Cholesterol Level in Serum After Administration, 12 days [1, 4]: 103.4

Riboflavin acetate
ALP level (after administration), 4 days (ALP in the serum; 4 days): 98.1 | ALP level (after administration), 8 days (ALP in the serum; 8 days): 98.8 | ALP level (after administration), 12 days (ALP in the serum; 12 days): 93.9 | Total Cholesterol Level in Serum After Administration, 4 days ([1]; riboflavin acetate 6 mg/kg, relative to average level 2 and 1 week before administration (100)): 103.9 | Total Cholesterol Level in Serum After Administration, 8 days [1, 5]: 101.6 | Total Cholesterol Level in Serum After Administration, 12 days [1, 5]: 100.5
